Measured values taken from ChEMBL document CHEMBL1159034, “Emodin, a protein tyrosine kinase inhibitor from Polygonum cuspidatum” (J Nat Prod, 1992).
Values after ≈ are worked out from the molar mass of the structure shown. Active and inactive are the calls of the source. No cut-off for these calls is given here.

Columns and labels:
[1] = Inhibition of bovine thymus p56 LCK activity; set-up: species or system Bos taurus
[2] = Inhibition of bovine thymus p56 LCK activity by competitive inhibition assay; set-up: species or system Bos taurus
Bos taurus = organism: Bos taurus; assay: Inhibition of bovine thymus p56 LCK activity by noncompetitive inhibition assay

Cc1cc(O)c2c(c1)C(=O)c1cc(O)cc(O)c1C2=O [EMODIN]
IC50 [1]: 5 µg/mL (≈ 18.5 µM)
Ki [2]: 13 µM
Activity (Bos taurus): Active

COc1cc(O)c2c(c1)C(=O)c1cc(C)cc(O)c1C2=O [PHYSCION]
IC50 [1]: > 800 µg/mL

Cc1cc(O)c2c(c1)C(=O)c1cc(O)cc(O[C@@H]3O[C@H](CO)[C@@H](O)[C@H](O)[C@H]3O)c1C2=O [EMODIN 8-O-BETA-D-GLUCOPYRANOSIDE]
IC50 [1]: > 800 µg/mL
